The record followed here is patent US20060014728A1, “Hormone replacement therapy” (priority 1996, published 2006).

Several values for one entry are separate records, joined by “and”; a condition that tells them apart may be missing. Equal values may be shown once.

In one assay the test system is endometrium. Description: Antiproliferative action of antiprogestins on the endometrium in estrogen-replaced, ovariectomized cynomolgus monkeys (Example 2). In kind it is in vivo. As to conditions: biopsy day 30; 1 or 3 mg/kg im daily days 1-30; estradiol capsule sc.
In another assay the test system is endometrial tissues. Description: Histologic evaluation of primate endometrial tissues on days 53 and 70 (Example 1). As to conditions: for Endometrial Score: score 0-atrophic to 5-secretory; for Thickness (mm): mean ± SD; for thicknesses of endometrial tissues: day 70, Groups III-VI (2.0 and 20.0 mg/kg together). In kind it is in vivo, cynomolgus monkeys. The source says:
Additional data were collected by measurements of estradiol, progesterone and cortisol, as well as each antiprogestin in serum drawn on alternate days (1 to 81). Also, endometrial response was examined histologically in biopsy specimens collected on days 53 and 70, both to measure thickness of endometrial tissue (i.e., anti-proliferative response) and to assess the endometrial tissue qualitatively (atrophic, proliferative, or secretory, etc.).
(§1) The monkeys were randomly distributed into six treatment group preparations (n=5 each). Group I (control) was treated with the vehicle only. One empty silastic implant was placed sc surgically from study day 1 to 81; this controlled for estradiol treatment. Another empty silastic implant was inserted sc from days 28 to 35 and from days 67 to 74 and controlled for progesterone treatment. One ml of the antiprogestin vehicle was administered im on alternate days (39 to 67). Group II received continuous estradiol progesterone at two intervals but no antiprogestins. This experimental design allowed two menstrual challenges (A and B). As described below (Groups III-VI), menstrual challenge A was without antiprogestin exposure; whereas B was with antiprogestin treatment. Group III monkeys received the sequential estradiol and progesterone regimens as in Group II but also RU 486 at 2.0 mg/kg on alternate days for four weeks (days 39 to 67). For Group IV, the same treatment occurred, except that the RU 486 dose was elevated by ten-fold (20.0 mg/kg). Similarly, primates in Groups V and VI were injected with onapristone at 2.0 and 20.0 mg/kg, respectively.
(§2) In all treatment groups, observations for menstrual bleeding were made daily by visual inspection of the vaginal labia. Femoral blood collections (4.0 ml) were taken under ketamine-induced anesthesia (10 mg/kg) on alternate days and endometrial biopsies (by hysterotomy) were obtained on days 53 and 70. Endometrial biopsies were placed in formalin […] and processed for histologic evaluation by a clinical pathologist. Thickness of the endometrial tissues was measured with an ocular micrometer to determine the depth of the endometrium at its point of maximal thickness from the myometrial unction to the epithelial layer at the lumenal surface. Endometrial status was evaluated qualitatively and classified according to the following score: atrophic:O; early proliferative: 1; late proliferative:2; interval:3; early secretory:4; and late secretory:5.

Assay [1] deals with ovariectomized cynomolgus monkeys. Description: Withdrawal menses after sequential estradiol and progesterone therapy without versus with antiprogestin treatment (menstrual challenges A and B). In kind it is in vivo.
Source text: 30 ovariecomized cynomolgus monkeys were studied intensively over 12 weeks. Primates in Group I (N=5 each) received only the vehicles used for hormone delivery in Groups II-VI. Monkeys in Group II received estradiol at physiologic levels throughout (days 1 to 81) via a sc silastic implant, as well as two separate courses of progesterone at physiologic levels via a sc silastic implant (days 28 to 35 and 67 to 74). Groups III-VI received the same sequential regimen of estradiol and progesterone as Group II, but in addition were given an antiprogestin im on alternate days 39 to 67: Group III, mifepristone (RU 486) 2.0 mg/kg; Group IV, mifepristone 20.0 mg/kg; Group V, onapristone (ZK 299) 2.0 mg/kg; and Group VI, onapristone 20.0 mg/kg. The two menstrual challenge tests (A and B) were defined as the six days immediately after withdrawal of progesterone treatment (A on days 36 to 41 and B on days 75 to 80).
The protocol thus provided two periods of estrogen-only HRT treatment, one without antiprogestin followed by another with antiprogestin. Each of these two periods was followed by short-term progesterone treatment which provided a measurement of the effects on bleeding of the antiprogestin during the estrogen HRT treatment.
as §1, §2

The mark [2] stands for this setting: Day 53, antiprogestin 2.0 mg/kg.
[3] abbreviates: Day 53, antiprogestin 20.0 mg/kg.
The mark [4] stands for this setting: Day 53, estradiol + progesterone + antiprogestin 2.0 mg/kg im alternate days 39-67.
The mark [5] stands for this setting: Day 53, estradiol + progesterone + antiprogestin 20.0 mg/kg im alternate days 39-67.
[6] abbreviates: Day 70, antiprogestin 2.0 mg/kg.
Setting [7] is: Day 70, antiprogestin 20.0 mg/kg.
Setting [8] is: Day 70, estradiol + progesterone + antiprogestin 2.0 mg/kg im alternate days 39-67.
Where [9] appears, read: Day 70, estradiol + progesterone + antiprogestin 20.0 mg/kg im alternate days 39-67.
Where [10] appears, read: 20.0 mg/kg im on alternate days 39-67, with estradiol + progesterone.
The mark [11] stands for this setting: Menstrual Challenge A, withdrawal interval days 36-41, antiprogestins: none (baseline before antiprogestin), groups later given 2 mg/kg.
[12] abbreviates: Menstrual Challenge A, withdrawal interval days 36-41, antiprogestins: none (baseline before antiprogestin), groups later given 20 mg/kg.
The mark [13] stands for this setting: Menstrual Challenge B, withdrawal interval days 75-80, estradiol + progesterone + antiprogestin 2 mg/kg im on alternate days 39-67.
[14] abbreviates: Menstrual Challenge B, withdrawal interval days 75-80, estradiol + progesterone + antiprogestin 20 mg/kg im on alternate days 39-67.

Regarding `C[C@]12C[C@@H]3c4ccc(-c5ccc(C#N)cc5)cc4C[C@]45CCC(=O)C=C4CC[C@@H]([C@H]35)[C@@H]1CC[C@@]2(O)/C=C/CO` [ZK136798], the “classification of endometrial specimens (developmental stage)” value (“classification of endometrial specimens” below) with endometrium is “interval”.
Regarding `CC#C[C@]1(O)CC[C@H]2[C@@H]3CCC4=CC(=O)CCC4=C3[C@@H](c3ccc(N(C)C)cc3)C[C@@]21C` [mifepristone, 11β-(4-dimethylaminophenyl)-17β-hydroxy-1-propinyl-4,9estradien-3-one], the “Endometrial Score” value with endometrial tissues (setting [2]) is 3.6; in the assay on endometrial tissues (setting [3]) it was 3.8; in the assay on endometrial tissues (setting [6]), 2.4; in the assay with endometrial tissues (setting [7]) it was 2.8. In addition, the “Thickness (mm)” value in the assay with endometrial tissues (setting [4]) came out at 2.5 ± 0.2 mm; in the assay with endometrial tissues (setting [5]), 2.2 ± 0.2 mm; in the assay with endometrial tissues (setting [8]), 1.8 ± 0.2 mm; in the assay with endometrial tissues (setting [9]), 1.3 ± 0.1 mm. The “thicknesses of endometrial tissues” value in the assay with endometrial tissues is listed as “approximately 1.5 mm”. For the same molecule, in the assay on endometrium, the “classification of endometrial specimens” value is reported as “proliferative”. Also, the “bleeding outcome during menstrual challenge B” value is “complete amenorrhea” in assay [1] (2.0 mg/kg im on alternate days 39-67, with estradiol + progesterone) and “complete amenorrhea” in assay [1] (setting [10]). In addition, the “Incidence of Bleeding, Days” value in assay [1] (setting [11]) is given as 13/30; in assay [1] (setting [12]) it was 12/30; in assay [1] (setting [13]) it was 0/30; in assay [1] (setting [14]), 0/30.
For the molecule `CN(C)c1ccc([C@H]2C[C@]3(C)[C@@H](CC[C@]3(O)CCCO)[C@@H]3CCC4=CC(=O)CCC4=C32)cc1` [onapristone, 1β-(4-dimethylaminophenyl)-17-hydroxy-17β-(3-hydroxypropyl)-13-methyl-4,9-gonadien-3-one], the “Endometrial Score” value with endometrial tissues (setting [2]) was 3.8; in the assay on endometrial tissues (setting [3]), 3.6; with endometrial tissues (setting [6]) it was 4.0; in the assay with endometrial tissues (setting [7]), 3.0. Besides, the “Thickness (mm)” value was 2.6 ± 0.2 mm in the assay on endometrial tissues (setting [4]); 2.2 ± 0.1 mm in the assay on endometrial tissues (setting [5]); 1.6 mm and 1.6 ± 0.1 mm in the assay with endometrial tissues (setting [8]); 1.7 ± 0.1 mm with endometrial tissues (setting [9]). Further, the “histological evaluation of endometrium” value with endometrial tissues (Group V, 2.0 mg/kg) is “well-developed secretory glands”. The “thicknesses of endometrial tissues” value in the assay with endometrial tissues is reported as “approximately 1.5 mm”. The “classification of endometrial specimens” value in the assay on endometrium is listed as “interval”. Moreover, the “bleeding outcome during menstrual challenge B” value in assay [1] (setting [10]) was “complete amenorrhea”. The “Incidence of Bleeding, Days” value in assay [1] (setting [11]) is recorded as 9/30; in assay [1] (setting [12]) it was 9/30; in assay [1] (setting [13]), “three”; in assay [1] (Menstrual Challenge B, withdrawal interval days 75-80, estradiol + progesterone + antiprogestin 2 mg/kg im on alternate days 39-67, listed as ONA) it was 3/30; in assay [1] (setting [14]), 0/30.
